The conditions of data set [1]: computed value; Table 1 footnote b; cited from earlier work.
Another data set addresses rat brain TSPO (Rattus norvegicus, UniProt P16257). Format: binding. The conditions noted are these: for LipE: pKi minus clogD; for binding affinity for TSPO (in words): locked amide rotamers of ligand 22.
The format of data set [2] is physicochemical. As to conditions: n-octanol/sodium phosphate buffer, pH 7.4.

The structures appear in SMILES notation.

Consider `CCC(C)N(C)C(=O)c1cc2ccccc2c(-c2ccccc2Cl)n1` (centres unmarked) [Ligand 1, PK11195], for which the cLogD in data set [1] was 3.97.
What is called Ki is the dissociation constant of the complex between target and ligand, obtained from inhibition or displacement. Higher therefore signals weaker binding. In general, logD refers to the decadic logarithm of the distribution of all forms, ionised or not, between an organic phase and buffer at a given pH. At rat brain TSPO, `CC(Oc1cc(-c2ccccn2)nc2ncccc12)C(=O)N(C)c1ccccc1` (centres unmarked) [Ligand 20, N-Methyl-N-phenyl-2-[2-(pyridin-2-yl)-1,8-naphthyridin-4-yloxy]propanamide] showed a Ki of 0.5 ± 0.1 nM and a LipE of 6.5 ± 0.1. The same compound gave a logD in data set [2] of 2.48.
At rat brain TSPO, `CC(Oc1cc(-c2ncccn2)nc2ccccc12)C(=O)N(C)c1ccccc1` (centres unmarked) [Ligand 21, N-Methyl-N-phenyl-2-[2-(pyrimidin-2-yl)quinolin-4-yl]oxypropanamide] gave a Ki of 0.53 ± 0.08 nM and a LipE of 6.6 ± 0.1. Moreover, the logD in data set [2] stood at 2.48.
Regarding `CC(Oc1cc(-c2ccccn2)nc2ccccc12)C(=O)N(C)C(C)C` (centres unmarked) [Ligand 22, N-Isopropyl-N-methyl-2-[2-(pyridin-2-yl)quinolin-4-yloxy]propanamide], on rat brain TSPO, affinity was put at a Ki of 0.76 ± 0.09 nM and the LipE is 6.58 ± 0.05.
The corresponding values for `CC(Oc1cc(-c2ccccn2)nc2ccccc12)C(=O)N(C)c1ccc(F)cc1` (centres unmarked) [Ligand 23, N-(4-Fluorophenyl)-N-methyl-2-[2-(pyridin-2-yl)quinolin-4-yloxy]propanamide] are 0.09 ± 0.01 nM and 5.80 ± 0.06.
On rat brain TSPO, `COc1cc(OC(C)C(=O)N(C)c2ccccc2)c2cccnc2n1` (centres unmarked) [Ligand 27, 2-(2-Methoxy-1,8-naphthyridin-4-yloxy)-N-methyl-N-phenylpropanamide] displayed a Ki of 7.8 ± 0.6 nM and a LipE of 6.09 ± 0.04.
`CC(Oc1cc(-n2cccc2)nc2ccccc12)C(=O)N(C)c1ccccc1` (centres unmarked) [Ligand 29, 2-[2-(1H-Pyrrol-1-yl)quinolin-4-yloxy]-N-methyl-N-phenylpropanamide]: on rat brain TSPO, affinity was put at a Ki of 0.22 ± 0.03 nM and the LipE is listed as 6.13 ± 0.07.
On rat brain TSPO, `CN1C(=O)C(Oc2cc(-c3ccccn3)nc3ccccc23)CC1(C)C` (centres unmarked) [Ligand 33, 1,5,5-Trimethyl-3-[2-(pyridin-2-yl)quinolin-4-yloxy]pyrrolidin-2-one] yielded a Ki above 1000 nM and a LipE below 3.93.
In the case of `CC(C)N1CCC(Oc2cc(-c3ccccn3)nc3ccccc23)C1=O` (centres unmarked) [Ligand 34, 1-Isopropyl-3-[2-(pyridin-2-yl)quinolin-4-yloxy]pyrrolidin-2-one], at rat brain TSPO, the Ki is above 1000 nM, the “binding affinity for TSPO (in words)” value was “lacked any appreciable binding affinity” and the LipE was below 3.36.
On to `O=[N+]([O-])c1ccccc1NCc1ccccn1` [Ligand 35, 2-Nitro-N-(pyridin-2-ylmethyl)aniline], for which the “binding affinity for TSPO (in words)” value at rat brain TSPO is on record as “lacked any appreciable binding affinity”.
On rat brain TSPO, `CC(On1c(-c2ccccn2)nc2ccccc21)C(=O)N(C)C(C)C` (centres unmarked) [Ligand 36, N-Isopropyl-N-methyl-2-(2-(pyridin-2-yl)-1H-benzo[d]imidazol-1-yloxy)propanamide] returned a Ki above 1000 nM and a LipE below 2.47.

These data come from PMC5097887 (European journal of medicinal chemistry, 2016).
